Measured values taken from the METLIN SMRT retention time set (Domingo-Almenara et al. 2019).

Assay: gradient 5% acetonitrile 3 min, to 50% in 2 min, to 85% in 15 min, held 3 min, 100 µL/min
Settings: column: Zorbax Extend-C18 2.1 x 50 mm; eluents: water / acetonitrile, 0.1% formic acid
Procedure, shortened: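 In both positive and negative ionization mode, a quadrupole time-of-flight mass spectrometer coupled to HPLC analyzed pure standards run in mixtures of ~100 molecules. The Zorbax Extend-C18 column (2.1 × 50 mm, 1.8 μm) was operated at 100 μL/min with water and acetonitrile, each containing 0.1% formic acid. The dead volume was 40 μL and the dwell volume 900 μL. Retention time came from adduct peaks that were computationally picked and individually inspected by hand.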

SMILES | RP-LC retention time
COc1ccc(S(=O)(=O)N2C[C@H]3CN(C(=O)NCC(C)C)C[C@@H](C2)O3)cc1 | 729 s
O=C1CCCCC(CNC(=O)c2n[nH]c(=O)c3ccccc23)N1 (centres undefined) | 604 s
CCN1CCCn2cc(S(=O)(=O)Nc3cc(C)ccc3C)cc2C1=O | 756 s
Cc1nnc2cc(N3CCN(C(=O)Nc4ccc(F)c(Cl)c4)CC3)cnn12 | 658 s
CCc1nc(-c2csc(S(=O)(=O)N3CCCC(C(=O)NCc4ccccc4C)C3)c2)no1 (centres undefined) | 1010 s
O=C1C2N=NN(Cc3nc(-c4ccccc4Cl)no3)C2C(=O)N1c1ccc2c(c1)OCO2 (centres undefined) | 1020 s
CCCn1ncc(N2CCC(C(=O)NCCCN3CCCC3=O)CC2)cc1=O | 594 s
Cn1cc(CN2CCC(C(=O)NCCCc3ccccc3)CC2)c2cc(Cl)ccc21 | 753 s
Cc1nn2c(S(=O)(=O)N3CCCCC3)c(C)nc2s1 | 792 s
Cc1cn(C)c(CC(=O)NCc2ccc3c(c2)OCO3)c1C(=O)O | 687 s
Cc1ccc(NC(=O)N2CCCC(C)(C(=O)NCc3ccccc3)C2)cc1Cl (centres undefined) | 995 s
CCOC(=O)C1CCN(Cc2nc(-c3ccc(N4CCCC4)nc3)no2)CC1 | 572 s
O=S(=O)(c1ccc(F)cc1Cl)N1CCCn2nc(-c3cccnc3)cc2C1 | 687 s
CC1Oc2ccc(S(=O)(=O)N3CCC(C(=O)NC4CCCC4)CC3)cc2NC1=O (centres undefined) | 740 s
COc1ccc(Cl)cc1S(=O)(=O)N1C[C@@H](F)C[C@H]1C(=O)N1CCCCC1 | 785 s
Cc1noc(C)c1CN1CCN(C(=O)CSc2ccc(F)cc2)CC1 | 570 s
NC(=O)[C@@H]1C[C@H](Oc2cccnc2)CN1C(=O)CCc1nc2ccccc2s1 | 589 s
Cc1nn(C(C)C)c(C)c1S(=O)(=O)N1CCN(C(=O)C2(c3ccccc3)CC2)CC1 | 890 s
COc1ccc(-c2noc(C3CCCN3C(=O)Nc3ccc(OC)c(Cl)c3)n2)cc1 (centres undefined) | 974 s
CC(C)c1nncn1C1CCN(C(=O)c2ccc3c(c2)OCO3)C1 (centres undefined) | 612 s
O=C(N[C@@H]1CN(c2ncccn2)C[C@H]1CO)C1(c2ccccc2)CC1 | 654 s
COC(=O)c1ccc2c(=O)n(-c3ccc4c(c3)OCO4)c(N3CCN(c4ccccc4)CC3)nc2c1 | 1110 s
Cc1cc(Cl)ccc1NS(=O)(=O)c1cc(-c2[nH]ncc2C(=O)N(C)C)oc1C | 730 s

SMILES | RP-LC retention time
CCCCCn1c(=O)c2ccccc2n(Cc2nc(-c3ccc(SC)cc3)no2)c1=O | 1290 s
NC(=O)CNC(=O)c1cc2c(s1)N(CC1CC1)CCCC2 | 692 s
O=C(NCC1COc2ccccc2O1)c1cc(-c2cccnc2)nc2ccccc12 (centres undefined) | 760 s
CNC(=O)OCN1C(=O)C2CC=CCC2C1=O (centres undefined) | 677 s
CCc1nc(-c2csc(S(=O)(=O)N3CCCC(C(=O)Nc4ccc5c(c4)OCO5)C3)c2)no1 (centres undefined) | 984 s
COc1ccc(-c2nnc(-c3ccc(C)c(S(=O)(=O)N4CCCCC4)c3)o2)cc1OC | 1060 s
O=C(Cn1c(=O)cc(-c2nc(C3CC3)no2)c2ccccc21)NCc1ccccc1F | 902 s
COc1ccccc1C1(CNC(=O)CSc2ccc(F)cc2)CCOCC1 | 853 s
COc1cccc(CNC(=O)CN2CCc3[nH]c4c(C)c(Cl)ccc4c(=O)c3C2)c1 | 636 s
CCCN1CCN(C(=O)C2CCN(S(=O)(=O)c3ccc4c(c3)sc(=O)n4CCC)CC2)CC1 | 658 s
CCOC(=O)c1[nH]c(C)c(C(=O)N2CCC(CC(=O)NC3CCCC3)CC2)c1C | 696 s
CCN(CC)C(=O)c1cnc2snc(C)c2c1N1CCC(C(=O)Nc2cc(F)ccc2F)CC1 | 940 s
O=C(c1ccc[nH]1)N1CCC2(CC1)NC(=O)N(Cc1cccc(Cl)c1)C2=O | 769 s
CC(=O)N(Cc1nn(C)c2c1CN(S(=O)(=O)c1cccc(F)c1)CC2)c1ccccc1 | 796 s
CC(=O)N(C)CCc1noc(C2CN(C(=O)Cc3cccs3)C2)n1 | 627 s
CCN(Cc1ccccc1)C(=O)Cn1nc2c(N3CCC(C)CC3)nccn2c1=O | 861 s
OCCNCc1ccc(-c2ccccc2F)o1 | 596 s
COC(=O)C(Cc1c[nH]c2ccccc12)NC(=O)c1ccc(Br)cc1 (centres undefined) | 931 s
CNC(=O)[C@H](Cc1c[nH]c2ccccc12)NC(=O)[C@@H](CC(=O)NO)CC(C)C | 662 s
CC(C)CN1C(=O)CCc2cc(NS(=O)(=O)c3ccc(F)cc3)ccc21 | 861 s
CCc1ccc(-c2cn3ccn(-c4ccc(F)cc4)c(=O)c3n2)cc1 | 900 s
Cc1nc(-c2cc(S(=O)(=O)N3CCN(c4cccc(C)c4C)CC3)c(C)s2)cs1 | 1370 s
CC12CC(c3ccccc3O1)C(C(=O)N1CCCCC1)C(=O)N2 (centres undefined) | 726 s

SMILES | RP-LC retention time
CC(C)n1cnc(S(=O)(=O)N2CCC(C(=O)NCc3ccc(Cl)cc3)CC2)c1 | 749 s
CC(C)Cc1cc(-c2nnc3sc(-c4cccc(N(C)C)c4)nn23)n[nH]1 | 1020 s
CCCn1nnc(NCc2ccc(-c3ccc(C)c(Cl)c3)o2)n1 | 1130 s
COc1ccccc1N1CCN(c2nnc(SC(C)C)s2)CC1 | 952 s
CCOC(=O)N1CCC(NC(=O)c2nc(-c3cnccn3)no2)CC1 | 631 s
O=C(CN1C(=O)c2ccccc2C1=O)OCc1nc2ccccc2s1 | 840 s
COc1ccc(C)cc1NC(=O)N1CCCC1c1cc(C(C)C)on1 (centres undefined) | 1050 s
CCN1C(=O)c2cccnc2Sc2cc(NC(=O)c3ccccc3C)ccc21 | 833 s
CC(C)CNC(=O)CCc1ccc2nc(-c3ccccc3)[nH]c2c1 | 618 s
Cc1ccc(C)c(NC(=O)Cn2nc3c4sc(N(C)C)nc4ncn3c2=O)c1 | 694 s
CCOC(=O)c1c(CN2CCN(CC#N)CC2)n(C)c2cc(Br)c(OC(C)=O)cc12 | 706 s
COc1cccc(C(=O)NC2(C(F)(F)F)C(=O)N(CC(C)C)C3=C2C(=O)CC(C)(C)C3)c1 (centres undefined) | 1040 s
CCN1c2cc(C(=O)NC3CCN(Cc4ccccc4)CC3)ccc2C(=O)N2CCCCC21 (centres undefined) | 638 s
COc1ccc(-c2nc(C3CC(=O)N(c4ccc(F)cc4)C3)no2)cc1 (centres undefined) | 961 s
CCc1cc(=O)n(CC(=O)Nc2ccc(C)cc2)c(N)n1 | 617 s
COC(=O)c1ccc2c(=O)n(-c3cccc(Cl)c3)c(N3CCN(c4ccccn4)CC3)nc2c1 | 744 s
Cc1[nH]nc(-c2c(C)sc(C)c2S(=O)(=O)NCCc2ccc(Cl)cc2)c1C | 1130 s
COc1ccc2c(c1)C1(CCN(S(=O)(=O)c3ccc(C)cc3)C1)C(=O)N2 (centres undefined) | 843 s
N#Cc1cccc(NC(=O)Cc2cn3cc(F)ccc3n2)c1 | 593 s
Cc1ccccc1NS(=O)(=O)c1cc(-c2cc(C(F)(F)F)on2)sc1C | 1180 s
COc1ccc(-c2nc(C)cc(C)c2CNC(=O)C2CCC2)cc1 | 584 s
CCOc1ccc(NC(=O)C2(CC)CCCCC(=O)N2)cc1 (centres undefined) | 720 s
O=C(Nc1ccc(N2CCOCC2)cc1)c1cn(-c2ccc(F)cc2)nn1 | 828 s

SMILES | RP-LC retention time
CCCN(CC1CCOC1)C(=O)Nc1ccc(Cl)cc1C (centres undefined) | 639 s
CCCN1CCN(CCCNC(=O)c2c(-c3ccc(Br)s3)noc2C)CC1 | 609 s
c1csc(-c2csc(CN3CCNCC3)n2)c1 | 548 s
O=C(NC1CCCC1)C1CCN(S(=O)(=O)c2cc(C(=O)N3CCCC3)cs2)CC1 | 644 s
O=C(NCC1CCN(C(=O)Oc2ccccc2)CC1)C(=O)Nc1cccnc1 | 610 s
CCCCN(C(=O)c1ccc(S(=O)(=O)N2CCOCC2)cc1)C1CCS(=O)(=O)C1 (centres undefined) | 687 s
Cc1ccc(S(=O)(=O)N2CCCC(C(=O)NCc3c(C)nc4sc(C)nn34)C2)cc1 (centres undefined) | 687 s
O=C(Nc1cnc(N2CCCCCC2)nc1)c1ccc(Br)o1 | 952 s
O=C(Cn1nc2c(N3CCCCCC3)nccn2c1=O)NCc1ccc(F)cc1 | 691 s
N#Cc1ncc(Cl)c2ccccc12 | 1020 s
CCN(CCN(C)C)c1ccc(NS(=O)(=O)c2ccccc2)cc1C(=O)O | 582 s
Cc1ccccc1Nc1c(-c2cc(Br)ccc2F)nc2ccccn12 | 808 s
Cc1ccc(CNC(=O)CN2C(=O)C3CCCN3C(=O)c3cccc(C)c32)cc1 (centres undefined) | 736 s
Cc1cc(NC(=O)N2CCCC(C)(C(=O)NCc3ccccc3C)C2)ccc1Br (centres undefined) | 1100 s
O=C(C1=CN(c2ccccc2)c2cc(F)ccc2S1(=O)=O)N1CCCCC1 | 882 s
CCN(Cc1ccccc1)S(=O)(=O)c1c(C)nn(-c2ccc(-c3ccccc3)nn2)c1C | 1220 s
O=C(CCc1c(-c2ccc(Cl)cc2)nc2ccccn12)NCCCc1ccccc1 | 719 s
CCc1ccc(S(=O)(=O)N2CC=C(c3cn(C)c4ncccc34)CC2)cc1 | 1100 s
CC1(C)CC(NC(=O)COc2ccccc2Cl)CC(C)(C)N1 | 618 s
COc1ccc2c(c1)C1(CCN(C(=O)c3ccc(C)c(F)c3)C1)C(=O)N2C (centres undefined) | 610 s
